Measurements from PubChem BioAssay (NCI).
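Each compound was tested at five concentrations against cells in 96-well plates for 48 hours. TGI: total growth inhibition.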

Experiments:
Assay in all cases: NCI tumour cell line growth inhibition, 48 h
[1] = test system: SF-268 CNS
[2] = test system: HCT-116 colon
[3] = test system: TK-10 renal
[4] = test system: SNB-75 CNS
[5] = test system: NCI-H460 lung
[6] = test system: HCC-2998 colon
[7] = test system: NCI-H23 lung
[8] = test system: OVCAR-5 ovarian
[9] = test system: K-562 leukemia
[10] = test system: HOP-92 NSCLC
[11] = test system: BT-549 breast
[12] = test system: SK-OV-3 ovarian
[13] = test system: UACC-257 melanoma
[14] = test system: SN12C renal
[15] = test system: HT29 colon
[16] = test system: RPMI-8226 leukemia
[17] = test system: MCF7 breast
[18] = test system: T-47D breast
[19] = test system: UACC-62 melanoma
[20] = test system: U251 CNS
[21] = test system: CCRF-CEM leukemia
[22] = test system: SR leukemia
[23] = test system: LOX IMVI melanoma
[24] = test system: MDA-N
[25] = test system: COLO 205 colon
[26] = test system: OVCAR-8 ovarian
[27] = test system: SK-MEL-28 melanoma
[28] = test system: HCT-15 colon
[29] = test system: SF-295 CNS
[30] = test system: SK-MEL-5 melanoma
[31] = test system: OVCAR-3 ovarian
[32] = test system: IGROV1 ovarian
[33] = test system: UO-31 renal
[34] = test system: NCI-H226 lung
[35] = test system: MOLT-4 leukemia
[36] = test system: CAKI-1 renal
[37] = test system: DU-145 prostate
[38] = test system: MDA-MB-231 breast
[39] = test system: SF-539 CNS
[40] = test system: PC-3 prostate
[41] = test system: RXF 393 renal
[42] = test system: MALME-3M melanoma
[43] = test system: HOP-62 NSCLC
[44] = test system: MDA-MB-435
[45] = test system: SNB-19 CNS
[46] = test system: KM12 colon
[47] = test system: A549 NSCLC
[48] = test system: HS 578T breast
[49] = test system: NCI/ADR-RES ovarian
[50] = test system: A498 renal
[51] = test system: HL-60(TB) leukemia
[52] = test system: 786-0 renal
[53] = test system: M14 melanoma
[54] = test system: SW-620 colon
[55] = test system: NCI-H522 lung
[56] = test system: ACHN renal
[57] = test system: EKVX NSCLC
[58] = test system: OVCAR-4 ovarian
[59] = test system: SK-MEL-2 melanoma
[60] = test system: LXFL 529 NSCLC
[61] = test system: DMS 273 small cell lung
[62] = test system: DLD-1 colon
[63] = test system: M19-MEL melanoma
[64] = test system: SNB-78 CNS
[65] = test system: DMS 114 small cell lung
[66] = test system: KM20L2 colon

SMILES: COc1ccc(C2/C(=C(\O)c3ccccc3)C(=O)C(O)(CC(=O)c3ccccc3)N2c2ccc(OC)cc2)cc1 (stereo not drawn)
- TGI [1]: > 100 µM
- TGI [2]: 39.8 µM
- TGI [3]: > 100 µM
- TGI [4]: > 100 µM
- TGI [5]: > 84.8 µM
- TGI [6]: > 47.7 µM
- TGI [7]: > 100 µM
- TGI [8]: > 100 µM
- TGI [9]: 58.8 µM
- TGI [10]: 32.5 µM
- TGI [11]: > 56.8 µM
- TGI [12]: 99.3 µM
- TGI [13]: 31.9 µM
- TGI [14]: 85.5 µM
- TGI [15]: > 100 µM
- TGI [16]: 14.8 µM
- TGI [17]: > 88.5 µM
- TGI [18]: 98 µM
- TGI [19]: > 100 µM
- TGI [20]: > 64.3 µM
- TGI [21]: 14.5 µM
- TGI [22]: 14.3 µM
- TGI [23]: 39.2 µM
- TGI [24]: 82.5 µM
- TGI [25]: 38.8 µM
- TGI [26]: > 100 µM
- TGI [27]: > 86.4 µM
- TGI [28]: 37.2 µM
- TGI [29]: > 100 µM
- TGI [30]: 29.2 µM
- TGI [31]: 26.2 µM
- TGI [32]: > 77.7 µM
- TGI [33]: 32.6 µM
- TGI [34]: 66.3 µM
- TGI [35]: 54 µM
- TGI [36]: > 75.8 µM
- TGI [37]: > 100 µM
- TGI [38]: 50.9 µM
- TGI [39]: 59.3 µM
- TGI [40]: > 81.6 µM
- TGI [41]: > 85.1 µM
- TGI [42]: 75.7 µM
- TGI [43]: > 100 µM
- TGI [44]: 47.7 µM
- TGI [45]: > 100 µM
- TGI [46]: 36.9 µM
- TGI [47]: > 100 µM
- TGI [48]: > 100 µM
- TGI [49]: 54.7 µM
- TGI [50]: > 100 µM
- TGI [51]: 28.7 µM
- TGI [52]: 46.7 µM
- TGI [53]: 99.6 µM
- TGI [54]: > 56.6 µM
- TGI [55]: 20.5 µM
- TGI [56]: 68.8 µM
- TGI [57]: > 100 µM
- TGI [58]: > 100 µM
- TGI [59]: 41.4 µM

SMILES: C=CCc1cc(OC)c2c(c1)C(OC(C)=O)CC(c1ccc(OC)c(OC)c1)O2 (stereo not drawn)
- TGI [1]: > 100 µM
- TGI [2]: > 100 µM
- TGI [3]: > 100 µM
- TGI [4]: 58.6 µM
- TGI [5]: > 100 µM
- TGI [6]: > 100 µM
- TGI [7]: > 100 µM
- TGI [8]: > 100 µM
- TGI [60]: > 100 µM
- TGI [9]: > 100 µM
- TGI [10]: 76.2 µM
- TGI [12]: > 100 µM
- TGI [13]: > 100 µM
- TGI [14]: > 100 µM
- TGI [15]: > 100 µM
- TGI [19]: > 100 µM
- TGI [20]: > 100 µM
- TGI [21]: > 100 µM
- TGI [61]: > 100 µM
- TGI [22]: > 100 µM
- TGI [25]: > 100 µM
- TGI [27]: > 100 µM
- TGI [28]: > 100 µM
- TGI [29]: > 100 µM
- TGI [30]: > 100 µM
- TGI [62]: > 100 µM
- TGI [31]: > 100 µM
- TGI [32]: > 100 µM
- TGI [33]: > 100 µM
- TGI [34]: > 100 µM
- TGI [35]: > 100 µM
- TGI [63]: > 100 µM
- TGI [36]: > 100 µM
- TGI [39]: > 100 µM
- TGI [42]: > 100 µM
- TGI [43]: > 100 µM
- TGI [45]: > 100 µM
- TGI [46]: > 100 µM
- TGI [47]: > 100 µM
- TGI [64]: > 100 µM
- TGI [65]: > 100 µM
- TGI [66]: > 100 µM
- TGI [51]: > 100 µM
- TGI [53]: > 100 µM
- TGI [54]: > 100 µM
- TGI [55]: > 100 µM
- TGI [56]: > 100 µM
- TGI [57]: > 100 µM
- TGI [58]: > 100 µM
